Measurements: BindingDB's records for doi:10.1016/j.ejmech.2021.113681 (Moscow State University, 2021)

Assay: Inhibition of gp120 in HIV-1 subtype B #11578 harboring pseudotyped Env pWEAUd15.410.5017 infected in human TZM-bl cells assessed as reduction in viral infection pretreated for 30 mins before viral infection and measured after 3 days by luciferase based single cycle infection assay

Structure (SMILES) | IC50
NC[C@H](NC(=O)CNCc1ccc(Cl)cc1)c1ncc(CO)s1 | > 23.4 µM
CC1(C)CC(NC(=O)c2ccc(-c3ccc(Cl)c(F)c3)[nH]2)CC(C)(C)N1 | 6.2 µM
Cc1nc([C@@H](CN)NC(=O)c2cc3cc(Cl)ccc3[nH]2)sc1CO | > 40 µM
NC[C@@H](NC(=O)C(=O)NCc1ccc(Cl)c(F)c1)c1ncc(CO)s1 | > 15 µM
Cc1nc([C@@H](CN)NC(=O)NC(=O)c2ccc(Cl)cc2)sc1CO | > 54 µM
NC[C@H](NC(=O)c1ccc(C2CCCCC2)[nH]1)c1ncc(CO)s1 | > 28 µM
NC[C@@H](NC(=O)c1ccc(-c2ccc(Cl)cc2)[nH]1)c1nccs1 | 3.3 µM
Cc1nc([C@@H](CN)NC(=O)C(=O)Nc2ccc(Cl)cc2)sc1CO | > 27 µM
NC[C@@H](NC(=O)Cc1ccc(OCC2CCCCC2)cc1)c1ncc(CO)s1 | > 25 µM
NC[C@H](NC(=O)c1ccc(-c2ccc(Cl)cc2)[nH]1)c1nccs1 | 0.8 µM
NC[C@H](NC(=O)c1ccc(NCC2CCCCC2)cc1)c1ncc(CO)s1 | > 15 µM
NC[C@@H](NC(=O)c1ccc(NCC2CCCCC2)cc1)c1ncc(CO)s1 | > 15 µM
NC[C@H](NC(=O)c1ccc(OCC2CCCCC2)cc1)c1ncc(CO)s1 | > 15 µM
Cc1nc([C@H](CN)NC(=O)C(=O)Nc2ccc(Cl)cc2)sc1CO | > 27 µM
NC[C@H](NC(=O)Cc1ccc(OCC2CCCCC2)cc1)c1ncc(CO)s1 | > 25 µM
O=C(N[C@@H](CC1CCNCC1)c1nc(CO)cs1)c1ccc(-c2ccc(C(F)(F)F)cc2)[nH]1 | 8.5 µM
NCCNC(=O)c1ccc(-c2ccc(Cl)c(F)c2)[nH]1 | 3.8 µM
Cc1nc([C@@H](CCN)NC(=O)C(=O)Nc2ccc(Cl)cc2)sc1CO | > 15 µM
Cc1nc([C@H](CN)NC(=O)c2cc3ccccc3[nH]2)sc1CO | > 60 µM
NC[C@@H](NC(=O)c1ccc(OCC2CCCCC2)cc1)c1ncc(CO)s1 | > 15 µM
Cc1nc([C@H](CN)NC(=O)c2cc3cc(Cl)ccc3[nH]2)sc1CO | > 40 µM
Cc1nc([C@H](CCN)NC(=O)C(=O)Nc2ccc(Cl)cc2)sc1CO | > 15 µM
O=C(N[C@H](CC1CCNCC1)c1nc(CO)cs1)c1ccc(-c2ccc(C(F)(F)F)cc2)[nH]1 | 12.4 µM
O=C(NC1CCNCC1)c1ccc(-c2ccc(Cl)c(F)c2)[nH]1 | 6.6 µM
NC[C@H](NC(=O)C(=O)NCc1ccc(Cl)c(F)c1)c1ncc(CO)s1 | > 15 µM
Cc1nc([C@H](CN)NC(=O)NC(=O)c2ccc(Cl)cc2)sc1CO | > 54 µM
Cc1nc([C@@H](CN)NC(=O)c2cc3ccccc3[nH]2)sc1CO | > 60 µM
NC[C@@H](NC(=O)c1ccc(C2CCCCC2)[nH]1)c1ncc(CO)s1 | > 28 µM
NC[C@@H](NC(=O)CNCc1ccc(Cl)cc1)c1ncc(CO)s1 | > 23.4 µM
O=C(NC1(c2nc(CO)cs2)CCNCC1)c1ccc(-c2ccc(C(F)(F)F)cc2)[nH]1 | 11.4 µM
